Test results from patent US7276337B2, “Compositions and methods for visual ribonuclease detection assays” (Integrated DNA Technologies, Inc., priority 2000, dated 2007).

Key:
[1] = target: T1, Ribonuclease A (Bos taurus, UniProt P61823); test: Visual detection ribonuclease assay, cleavage of Substrate ODN by RNase A; format: biochemical, mammalian; parameters: key to Sensitivity of Substrate ODN to Ribonuclease A, relative signal intensity: +++ = maximum intensity; ++ = moderate intensity; + = faint but above background; − = negative (identical to background); conditions: visual inspection, UV excitation, Substrate 500 nM, 37° C. 60 minutes
T1 sequence (P61823 27-150): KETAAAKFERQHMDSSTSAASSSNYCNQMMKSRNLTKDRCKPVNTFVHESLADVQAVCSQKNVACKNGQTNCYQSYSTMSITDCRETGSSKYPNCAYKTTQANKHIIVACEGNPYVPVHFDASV
Procedure: Nuclease assays were conducted using the methods of the invention. SEQ ID NO:2 and SEQ ID NO:30 oligonucleotides were individually mixed in 1× Assay Buffer at a concentration of 500 nM (50 pmoles ODN in 100 ul volume) in thin-walled, UV transparent microtubes. RNase A (1 ul, diluted to 0;1 ug/ul) was added to the respective Assay Mixes. […] Assays were set up directly in microtubes as follows:
Assay Mixes were incubated at room temperature for 10 minutes. Assays were visually examined for fluorescence emission directly in the assay tubes without further manipulation. Tubes were suspended above an ultraviolet light source, visually inspected, and photographed using a digital camera. […] The “positive” and “control” reactions appeared markedly different and were easily distinguished. […] The “positive” and “control” reactions were not markedly different to visual inspection.
(§1) Nuclease assays were conducted using the method of the invention with both visual and fluorometric detection methods. Substrates were individually mixed in 1× Assay Buffer at a concentration of 50 nM (50 pmoles oligonucleotide in 1 ml volume) for fluorometric detection or at a concentration of 500 nM (50 pmoles of oligonucleotide in 100 ul volume) for visual detection. Test nucleases were added to respective Assay Mixes beginning at 1 ul stock reagent and proceeding with a 1:10 serial dilution until undetectable. Reaction mixes were incubated at 37° C. for 60 minutes. Fluorometric detection was performed as outlined in Example 2. Visual detection was performed as outlined in Example 1.
(§2) Table 6: Sensitivity of different Substrate ODNs to Ribonuclease A. A series of Substrate ODNs were synthesized and tested for sensitivity to RNase A degradation. Stock enzyme was serial diluted to achieve final concentrations of 1 ng/ml, 100 pg/ml, and 10 pg/ml as indicated. Reactions were examined for fluorescence emission by visual inspection using an ultraviolet (UV) light source for excitation. Results were scored as +++, ++, +, or − based on relative signal intensity.
(§3) It is commonly accepted that fluorometry provides for high sensitivity. To be useful, the visual method must also offer high sensitivity. Assays were conducted using the method of the invention with visual detection. Substrate SEQ ID NO:30 was mixed in 1× Assay Buffer at a concentration of 500 nM (50 pmoles ODN in 100 ul volume) in thin-walled, UV transparent tubes. […] Dilutions of stock RNase A, RNase 1, and RNase T1 were made in water. Undiluted and diluted nuclease (1 ul) was added to respective 100 ul Assay Mixes resulting in final dilution factors of 10^−2, 10^−3, 10^−4, 10^−5, 10^−6, and 10^−7. Assays were incubated at room temperature for 10 minutes and visually examined for fluorescence emission with UV excitation. […] The experiment took about 30 minutes to perform, including 15 minutes to set-up serial dilutions, 10 minutes incubation, and 5 minutes to visualize and photograph. Thus the method of the invention allows for a rapid, simple, and convenient visual assay for the presence of ribonuclease activity.

[2] = target: T2, Ribonuclease T1 (Aspergillus oryzae, UniProt P00651); test: Visual detection ribonuclease assay, cleavage of Substrate ODN by RNase T1; format: biochemical; parameters: key to Sensitivity of Substrate ODN to Ribonuclease T1, relative signal intensity: +++ = maximum intensity; ++ = moderate intensity; + = faint but above background; − = negative (identical to background); conditions: visual inspection, UV excitation, Substrate 500 nM, 37° C. 60 minutes
T2 sequence (P00651 27-130): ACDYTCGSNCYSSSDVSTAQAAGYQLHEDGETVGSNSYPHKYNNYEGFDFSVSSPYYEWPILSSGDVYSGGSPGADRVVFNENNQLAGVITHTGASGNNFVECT
Procedure: as §1
as §2, with “Table 7:” for “Table 6:”, “Ribonuclease T1.” for “Ribonuclease A.”, “RNase T1” for “RNase A”, “of 0.001 units/ml, 0.0001 units/ml,” for “of 1 ng/ml, 100 pg/ml,”, “and 0.00001 units/ml” for “and 10 pg/ml”
as §3

[3] = system: Substrate oligonucleotide SEQ ID NO:30; test: RNase testing of commercially obtained reagents, visual detection; format: biochemical; parameters: key: +++ = maximum intensity; ++ = moderate intensity; + = faint but above background; − = negative (identical to background); conditions: reagent diluted 1:10 with Assay Buffer, 50 pmoles Substrate SEQ ID NO:30, 60 minutes at 37° C., UV
Procedure: Enzymes were obtained from New England Biolabs (NEB) or Ambion as indicated. Test sample (10 ul) was mixed with 1× buffer (90 ul) for a final volume of 100 ul with 50 pmoles of Substrate SEQ ID NO:30 in 0.5 ml RNase-free microtubes. Assay Mixes were incubated 60 minutes at 37° C. and visually examined under UV excitation for fluorescence emission. After scoring for results, 1 ul (1 ug) of RNase A was added to each tube. The Assay was incubated an additional 5 minutes at 37° C. and re-scored. The addition of RNase A represents a control for the absence of an Assay inhibitor and validates negative results. The “plus RNase A” control was omitted whenever the primary assay was already positive.
Table 9: RNase testing of commercially available reagents. A series of commercially available reagents were diluted 1:10 with Assay Buffer to a final volume of 100 ul. An RNase detection assay was performed using the method of the invention with Substrate oligonucleotide SEQ ID NO:30. Reactions were examined for fluorescence emission by visual inspection using an ultraviolet (UV) light source for excitation. Results were scored as +++, ++, +, or − based on relative signal intensity. As a control, RNase A (1 ug) was added to negative reactions and the Assay was re-scored. ND=not done.

5′ Fluorescein-AgaAA-Dabcyl 3′ (NAGAAAN; 5' fluorescein and 3' Dabcyl labels, nucleotide chemistry not given here) [SEQ ID NO:9]
Sensitivity of Substrate ODN to Ribonuclease A, relative signal intensity ([1]; RNase A 10 pg/ml): − | Sensitivity of Substrate ODN to Ribonuclease A, relative signal intensity ([1]; RNase A 100 pg/ml): − | Sensitivity of Substrate ODN to Ribonuclease A, relative signal intensity ([1]; RNase A 1 ng/ml): − | Sensitivity of Substrate ODN to Ribonuclease T1, relative signal intensity ([2]; RNase T1 10^−3 units/ml): + | Sensitivity of Substrate ODN to Ribonuclease T1, relative signal intensity ([2]; RNase T1 10^−4 units/ml): + | Sensitivity of Substrate ODN to Ribonuclease T1, relative signal intensity ([2]; RNase T1 10^−5 units/ml): −

5′ Fluorescein-AgcuAA-Dabcyl 3′ (NAGCUAAN; 5' fluorescein and 3' Dabcyl labels, nucleotide chemistry not given here) [SEQ ID NO:11]
Sensitivity of Substrate ODN to Ribonuclease A, relative signal intensity ([1]; RNase A 10 pg/ml): − | Sensitivity of Substrate ODN to Ribonuclease A, relative signal intensity ([1]; RNase A 100 pg/ml): − | Sensitivity of Substrate ODN to Ribonuclease A, relative signal intensity ([1]; RNase A 1 ng/ml): ++ | Sensitivity of Substrate ODN to Ribonuclease T1, relative signal intensity ([2]; RNase T1 10^−3 units/ml): + | Sensitivity of Substrate ODN to Ribonuclease T1, relative signal intensity ([2]; RNase T1 10^−4 units/ml): − | Sensitivity of Substrate ODN to Ribonuclease T1, relative signal intensity ([2]; RNase T1 10^−5 units/ml): −

5′ Fluorescein-AgcuaA-Dabcyl 3′ (NAGCUAAN; 5' fluorescein and 3' Dabcyl labels, nucleotide chemistry not given here) [SEQ ID NO:22]
Sensitivity of Substrate ODN to Ribonuclease A, relative signal intensity ([1]; RNase A 10 pg/ml): − | Sensitivity of Substrate ODN to Ribonuclease A, relative signal intensity ([1]; RNase A 100 pg/ml): ++ | Sensitivity of Substrate ODN to Ribonuclease A, relative signal intensity ([1]; RNase A 1 ng/ml): +++ | Sensitivity of Substrate ODN to Ribonuclease T1, relative signal intensity ([2]; RNase T1 10^−3 units/ml): +++ | Sensitivity of Substrate ODN to Ribonuclease T1, relative signal intensity ([2]; RNase T1 10^−4 units/ml): + | Sensitivity of Substrate ODN to Ribonuclease T1, relative signal intensity ([2]; RNase T1 10^−5 units/ml): −

5′ Fluorescein-AguAA-Dabcyl 3′ (NAGUAAN; 5' fluorescein and 3' Dabcyl labels, nucleotide chemistry not given here) [SEQ ID NO:7]
Sensitivity of Substrate ODN to Ribonuclease A, relative signal intensity ([1]; RNase A 10 pg/ml): − | Sensitivity of Substrate ODN to Ribonuclease A, relative signal intensity ([1]; RNase A 100 pg/ml): − | Sensitivity of Substrate ODN to Ribonuclease A, relative signal intensity ([1]; RNase A 1 ng/ml): + | Sensitivity of Substrate ODN to Ribonuclease T1, relative signal intensity ([2]; RNase T1 10^−3 units/ml): + | Sensitivity of Substrate ODN to Ribonuclease T1, relative signal intensity ([2]; RNase T1 10^−4 units/ml): − | Sensitivity of Substrate ODN to Ribonuclease T1, relative signal intensity ([2]; RNase T1 10^−5 units/ml): −

5′ Fluorescein-AgucAA-Dabcyl 3′ (NAGUCAAN; 5' fluorescein and 3' Dabcyl labels, nucleotide chemistry not given here) [SEQ ID NO:10]
Sensitivity of Substrate ODN to Ribonuclease A, relative signal intensity ([1]; RNase A 10 pg/ml): − | Sensitivity of Substrate ODN to Ribonuclease A, relative signal intensity ([1]; RNase A 100 pg/ml): − | Sensitivity of Substrate ODN to Ribonuclease A, relative signal intensity ([1]; RNase A 1 ng/ml): ++ | Sensitivity of Substrate ODN to Ribonuclease T1, relative signal intensity ([2]; RNase T1 10^−3 units/ml): + | Sensitivity of Substrate ODN to Ribonuclease T1, relative signal intensity ([2]; RNase T1 10^−4 units/ml): − | Sensitivity of Substrate ODN to Ribonuclease T1, relative signal intensity ([2]; RNase T1 10^−5 units/ml): −

5′ Fluorescein-AgucaA-Dabcyl 3′ (NAGUCAAN; 5' fluorescein and 3' Dabcyl labels, nucleotide chemistry not given here) [SEQ ID NO:23]
Sensitivity of Substrate ODN to Ribonuclease A, relative signal intensity ([1]; RNase A 10 pg/ml): − | Sensitivity of Substrate ODN to Ribonuclease A, relative signal intensity ([1]; RNase A 100 pg/ml): + | Sensitivity of Substrate ODN to Ribonuclease A, relative signal intensity ([1]; RNase A 1 ng/ml): +++ | Sensitivity of Substrate ODN to Ribonuclease T1, relative signal intensity ([2]; RNase T1 10^−3 units/ml): ++ | Sensitivity of Substrate ODN to Ribonuclease T1, relative signal intensity ([2]; RNase T1 10^−4 units/ml): − | Sensitivity of Substrate ODN to Ribonuclease T1, relative signal intensity ([2]; RNase T1 10^−5 units/ml): −

5′ Fluorescein-AuagA-Dabcyl 3′ (NAUAGAN; 5' fluorescein and 3' Dabcyl labels, nucleotide chemistry not given here) [SEQ ID NO:16]
Sensitivity of Substrate ODN to Ribonuclease A, relative signal intensity ([1]; RNase A 10 pg/ml): − | Sensitivity of Substrate ODN to Ribonuclease A, relative signal intensity ([1]; RNase A 100 pg/ml): ++ | Sensitivity of Substrate ODN to Ribonuclease A, relative signal intensity ([1]; RNase A 1 ng/ml): +++ | Sensitivity of Substrate ODN to Ribonuclease T1, relative signal intensity ([2]; RNase T1 10^−3 units/ml): +++ | Sensitivity of Substrate ODN to Ribonuclease T1, relative signal intensity ([2]; RNase T1 10^−4 units/ml): +++ | Sensitivity of Substrate ODN to Ribonuclease T1, relative signal intensity ([2]; RNase T1 10^−5 units/ml): −

Hind III: commercial enzyme from New England Biolabs, sold as RNase-free
Assay Results (RNase activity in reagent, relative signal intensity) [3]: −

Super Taq: commercial enzyme reagent from Ambion, sold as RNase-free
Assay Results (RNase activity in reagent, relative signal intensity) [3]: −

T7 RNA Polymerase: commercial enzyme reagent from Ambion, sold as RNase-free
Assay Results (RNase activity in reagent, relative signal intensity) [3]: −
